From patent publication US20060276486A1, “Lklf/klf2 gene expression promoter” (KOWA CO., KTD., priority 2003, published 2006)

Experiments:
LKLF/KLF2 gene [1] = assay: LKLF/KLF2 gene expression in HUVEC by reverse transcription and TaqMan analysis (ABI PRISM 7000); format: cell-based, human; conditions: for activities to promote the expression of LKLF/KLF2 gene (summary statement): cultured human cell system; for effect of added metabolite on the increase of LKLF/KLF2 gene expression by pitavastatin calcium: pitavastatin calcium 1 μmol/L in combination with MVA 100 μmol/L, FPP, GGPP or Cho 10 μmol/L, 8 hours
LKLF/KLF2 gene [2] = assay: LKLF/KLF2 gene expression analysis in HUVEC by Human Genome Focus Array (GeneChip); format: cell-based; conditions: control 271
Procedure: Two days after inoculation of normal human umbilical vein endothelial cells (HUVEC) at 3×10^5 cells/10 cm dish, pitavastatin calcium (indicated as “Pit” in FIG. 1) was added to 1.1 μmol/L. Dimethyl sulfoxide, a solvent for pitavastatin calcium, was added to a control (final concentration: 0.0066 v/v %). Eight hours after the addition, total RNAs were extracted with “ISOGEN” (trade mark, product of NIPPON GENE CO., LTD.). The following procedures were conducted in accordance with the procedures manual of Affymetrix. Inc. Described specifically, following the methods known per se in the art, mRNA was isolated from each total RNA obtained above, and based on the mRNA, cDNA was synthesized. Further, biotin-labeled cRNA was synthesized by in vitro transcription. Subsequent to purification, the biotin-labeled cRNA was subjected to fragmentation by heat treatment to prepare fragmented cRNA for use in a gene expression analysis.
Gene expression analysis method: The fragmented cRNA was poured into “Human Genome Focus Array” (trade name, product of Affymetrix, Inc.), and hybridization was conducted at 45° C. for 16 hours. […] The information was analyzed by “GENECHIP SOFTWARE” (trade name, product of Affymetrix, Inc.) to effect a comparison in expression level.

Row | Structure (SMILES) | activities to promote the expression of LKLF/KLF2 gene (summary statement) (LKLF/KLF2 gene [1]) | effect of added metabolite on the increase of LKLF/KLF2 gene expression by pitavastatin calcium (LKLF/KLF2 gene [1]; HUVEC) | also measured
1 | CSCC[C@H](NC(=O)c1ccc(NC[C@@H](N)CS)cc1-c1ccccc1)C(=O)O [FTI-276] | in possession of activities to promote the expression of LKLF/KLF2 gene | – | –
2 | COC(=O)[C@H](CC(C)C)NC(=O)c1ccc(NC[C@@H](N)CS)cc1-c1ccccc1 [GGTI-286] | in possession of activities to promote the expression of LKLF/KLF2 gene | – | –
3 | CC(C)CCC[C@@H](C)[C@H]1CC[C@H]2[C@@H]3CC=C4C[C@@H](O)CC[C@]4(C)[C@H]3CC[C@]12C [cholesterol] | – | not affected | –
4 | CC(C)=CCC/C(C)=C/CC/C(C)=C/COP(=O)(O)OP(=O)(O)O [farnesyl pyrophosphate] | – | reduced | –
5 | CC(C)=CCC/C(C)=C/CC/C(C)=C/CC/C(C)=C/COP(=O)(O)OP(=O)(O)O [geranylgeranyl pyrophosphate] | – | reduced | –
6 | C[C@@](O)(CCO)CC(=O)O [mevalonic acid] | – | reduced | –
7 | O=C(O)C[C@H](O)C[C@H](O)/C=C/c1c(C2CC2)nc2ccccc2c1-c1ccc(F)cc1 [pitavastatin calcium, (3R,5S,6E)-7-[2-cyclopropyl-4-(4-fluorophenyl)-3-quinolyl]-3,5-dihydroxy-6-heptenoic acid] | has activities to promote the expression of LKLF/KLF2 gene | – | expression of LKLF/KLF2 gene in HUVEC (expression level) with addition of GGPP (LKLF/KLF2 gene [2]; pitavastatin calcium 1.1 μmol/L plus geranylgeranyl pyrophosphate (GGPP), 8 hours): 355; expression of LKLF/KLF2 gene in HUVEC (expression level) (LKLF/KLF2 gene [2]; pitavastatin calcium 1.1 μmol/L, 8 hours after addition): 761; increase of expression of LKLF/KLF2 gene in comparison with the group added with no drug (LKLF/KLF2 gene [1]; HUVEC, 1 μmol/L alone, 8 hours after addition): 693%
